These results are taken from patent USRE45916E1, “Intraoperative imaging of renal cortical tumors and cysts” (University of Rochester, priority 2006, dated 2016).

“Also recorded” adds a separate entry of the source. Read-outs that look alike come from different tables or passages of the source.

For data set [1] the following is noted: mammals, several months after the treatment, cited from earlier work.
For data set [2] the following is noted: cited from earlier work.
The nature of data set [3]: Clinical trial: safety of intravenous ICG in nephrectomy patients. Type of data set: in vivo, human. The settings on record: ten patients, ICG intravenously. Here is the method: Following Institutional Review Board approval, a clinical trial of the invention was conducted. Ten patients presenting for radical or partial nephrectomy were enrolled in the trial. After the kidney was mobilized (typically, only one of the patient's kidneys is involved in such operations), ˜10 cc (2.5 mg/ml) of ICG was injected intravenously. Shortly after injection, near infrared fluorescence (NIRF) imaging was conducted and recorded using a LUNA™ NIRF system (Novadaq Technologies Inc, Mississauga, Canada).
Microscopy and histological studies were performed on excised tissue. […] Histological examination using hematoxylin and eosin staining confirmed the location of differential ICG fluorescence in tumor and normal renal tissue. All surgical margins were negative: 4 mm (the range of the margin was from 2-10 mm).

Data set [4] relates to renal cortical tumors and cysts. The data set is described as follows: Clinical trial: intraoperative near infrared fluorescence (NIRF) imaging of the kidney after intravenous ICG in radical or partial nephrectomy patients. Type of data set: in vivo, human.
Procedure: Following Institutional Review Board approval, a clinical trial of the invention was conducted. Ten patients presenting for radical or partial nephrectomy were enrolled in the trial. After the kidney was mobilized (typically, only one of the patient's kidneys is involved in such operations), ˜10 cc (2.5 mg/ml) of ICG was injected intravenously. Shortly after injection, near infrared fluorescence (NIRF) imaging was conducted and recorded using a LUNA™ NIRF system (Novadaq Technologies Inc, Mississauga, Canada). The first two patients selected presented for radical nephrectomy. […] After removal, the kidneys were studied by NIRF imaging to confirm that normal and tumor tissue could be distinguished. […] Eight of these patients were studied.
A short description of data set [5]: Animal studies: ICG injected into the penis to image nerves, kidney fluorescence observed. Particulars: animals. Type of data set: in vivo. The text has this: The present invention stems in part from studies we took in using the near infrared fluorescent dye indocyanine green (“ICG”) to image cavernous nerves of the penis. When abdominal incisions were made, we noted that the kidneys were fluorescent for hours to days after ICG administration, even though ICG is cleared quickly from the circulation. Because we are urologists, we are aware that kidney tumors tend to be hypervascular and develop rich vascular beds that are not uniform. We formed the hypothesis that the vascular beds would tend to impede the flow of ICG out of the tumor. We realized that any difference in admission or retention of fluorescent dye between normal and tumor tissue would result in different amounts of fluorescence, and that these differences could be exploited to detect the presence or absence of tumors in areas of the kidney. We hypothesized that kidney tumors would tend to retain ICG more than areas of the kidney with normal vasculature, and that areas within the kidney that fluoresced when exposed to light of an appropriate excitation frequency would identify the presence of tumors.
Typically, the dye is administered sufficiently before the intended surgery to permit the kidney to take up the dye, but not so long before the surgery that the dye has been cleared by the liver or otherwise eliminated from the body. […]

The test system of the next data set is intrinsic brain tumors. Particulars: nine patients, ICG as intravenous contrast-enhancement agent; cited from earlier work.

`N=C(N)c1ccc(/C=C/c2ccc(C(=N)N)cc2O)cc1` [Fluorogold]: the neuronal toxicity entry in data set [1] is listed as “low evidence of neuronal toxicity”; in data set [1] (listed as fluorogold), “without evidence of neuronal toxicity”.

Turning to `CC1(C)C(/C=C/C=C/C=C/C=C2\N(CCCCS(=O)(=O)O)c3ccc4ccccc4c3C2(C)C)=[N+](CCCCS(=O)(=O)[O-])c2ccc3ccccc3c21` [ICG, indocyanine green], in data set [2] (in the body), the metabolism entry was “not metabolized in the body”. Moreover, in data set [2] (in vivo), the excretion entry is recorded as “excreted exclusively by the liver”; the “reabsorption from the intestine / enterohepatic recirculation” value was “not reabsorbed from the intestine and does not undergo enterohepatic recirculation”. The “distribution after intravenous injection” value in data set [2] (with normal vascular permeability) is “remains intravascular”. In data set [3], the “effects of the dye on post-operative hepatorenal function” value is “No hypersensitivity reactions or effects of the dye on post-operative hepatorenal function were observed” and the hypersensitivity reactions entry is given as “No hypersensitivity reactions”. In addition, in data set [4] (partial nephrectomy under NIRF imaging), the surgical margins entry is listed as “negative”. Also, in data set [4] (patients, ICG intravenously), the “fluorescence of complex / hemorrhagic cysts under NIRF imaging” value is given as “hypo- or non-fluorescent; also recorded: NIRF characteristics of renal cell carcinoma” and the “fluorescence of normal kidney tissue under NIRF imaging” value is on record as “fluoresced brightly; also recorded: brightly fluorescent”. In data set [4] (patients, ICG intravenously, ~10 cc (2.5 mg/ml), against normal kidney parenchyma), the “fluorescence of kidney tumors under NIRF imaging” value is “non-fluorescing “black” or hypofluorescent “gray” areas; also recorded: hypo- or non-fluorescent areas; also recorded: hypo-fluorescent or non-fluorescent areas”. Moreover, the “fluorescence of benign cysts under NIRF imaging” value in data set [4] (patients, ICG intravenously, compared to normal parenchyma) is “even more fluorescent than did normal tissue; also recorded: increased fluorescence compared to the normal parenchyma”. In addition, the “kidney fluorescence 18 hours after injection” value in data set [5] (ICG injected into the penis, 18 hours after injection) is reported as “intense fluorescence”. Moreover, the “duration of kidney fluorescence after ICG administration” value in data set [5] (seen at abdominal incision) is “hours to days”. Also, in the data set with intrinsic brain tumors, the “dynamic optical signals of brain tissue and tumors” value was “differences in the dynamic optical signals among normal brain, low-grade astrocytomas, and malignant astrocytomas”; the “optical imaging of resection margins in malignant tumors” value was “differences between adjacent normal tissue and remaining tumor tissue”.
